Read-outs that look alike come from different tables or passages of the source.
Tests used:
[1] = test system: K562 cells; experiment: K562 cell viability, CellTiter-Glo luminescent assay; type: cell-based, Human; conditions: 48 h; for IC50: Homo sapiens
Method: K562 cells were treated with indicated concentrations of CFZ for 24 h or 48 h, cell viability was then assessed using the CellTiter-Glo luminescent cell viability assay (Promega). Data is mean±SEM of three independent experiments (each in triplicates). IC50 was calculated using Graphpad prism 5 software.
K562 cells were treated as indicated for 48 h and cell viability was determined by CellTiter-Glo luminescent cell viability assay (A) graphical representation of mean±SEM of three independent experiments.
(§1) Determination of CFZ's Effect on Cell Viability and Apoptosis • a. CellTitre-Glo assay: Cell viability (in FIG. 1B, FIG. 4 and FIG. 6A) assays was performed using the ATP-based CellTiter-Glo Luminescent cell viability assay (Promega Madison, Wis.) as per the manufacturer's instruction. Briefly, (1.25×10^5) K562 cells/ml (FIG. 1B and FIG. 4) or CD34+ cells from healthy donors (FIG. 6A) were cultured in 48-well plates and were treated as indicated in the respective figures and figure descriptions (vehicle; V=0.1% DMSO). Cells were then incubated with CellTitre-Glo reagent for 15 min. Luminescence was recorded in a GloMax-96 Microplate luminometer (Promega, Madison, Wis.) with an integration time of 1 s per well. • b. Analysis of apoptosis by Annexin V staining and flow cytometry • K562 (FIG. 1C-D) and primary CP-CML cells (FIG. 1H-I) were cultured in 6 well plates (2×10^5 cells/well) and were treated with indicated concentrations of compounds as described in respective figures and their descriptions. Cells were then harvested and washed, and incubated in binding buffer (Annexin V Binding Buffer, BD Pharmingen) with 0.3% Annexin V-FITC and PI for 15 min at room temperature in dark. Apoptosis was measured by FACSCalibur flow cytometer (Becton Dickenson, San Jose, Calif.). • c. TUNEL assay • Pro-apoptotic potential was analysed using a Fluorometric APO-BrdU™ TUNEL Assay Kit (Invitrogen) according to the manufacturer's protocol (FIG. 1F). Cells were treated with Vehicle (0.1% DMSO) or CFZ (5 μM) for 48 h. Cells were then fixed in formaldehyde (4%) for 25 min at 4° C., permeabilized with 0.2% Triton-X100 and washed with PBS. Cells were then incubated in Terminal Deoxynucleotidyl Transferase (TdT) reaction buffer without TdT enzyme for 7 minutes at room temperature and then in TdT buffer with TdT enzyme at 37° C. in dark. After termination of TdT reaction, cells were stained with 5 μg/ml of PI for 15 min in dark followed by washing and analysed with fluorescence microscopy.

[2] = test system: K562 cells; experiment: Apoptosis by annexin V/PI staining and flow cytometry in K562 cells; type: cell-based, Human; conditions: 48 h
Method: K562 cells were treated with CFZ for 48 h and apoptosis was analyzed by annexin V and propidium iodide (PI) staining followed by flow-cytometry (FACSCalibur, BD biosciences). (C) Mean±SEM of three independent experiments are plotted. (D) Representative dot plot.

[3] = test system: CD34+ population from CP-CML cells from imatinib-resistant patients; experiment: CD34+ count and apoptosis in CD34+ LSC population from imatinib-resistant CP-CML patients; type: cell-based, Human
Method: CD34^+ population from CP-CML cells from imatinib-resistant patients (n=3) were individually purified using a CD34 microbead kit (Miltenyi Biotech) and were treated with 5 μM CFZ or salinomycin for 48 h. Cells were then divided into two groups. One group was assessed by immunostaining for CD34 and the other group was stained with annexin V/PI and the cells were then analyzed by flow-cytometry. Salinomycin was used as positive control. **p<0.01, ***p<0.0001.
CD34^+ population from primary CP-CML cells from imatinib-resistant patients (n=3) were purified using a CD34 microbead kit. Cells were incubated with V or 2.5 μM CFZ for 96 h, stained with PE-conjugated anti-CD34 and FITC-conjugated anti-CD38 antibodies for specific subpopulation and apoptosis was analyzed by APC labeled annexin V and propidium iodide (PI) staining followed by flow-cytometry (FACSCalibur, BD biosciences). *p<0.05, **p<0.01.
The observed purity was 80-90%.
For assessing apoptosis in the CD34^+ population from CML patients, these cells were then treated as indicated in the figures and figure descriptions (FIG. 2A). At the end of treatment, cells from each treatment group were divided in two separate tubes. One group was stained with CD34-PE and the other group was stained with Annexin V FITC/PI antibodies.
For assessing apoptosis in CD34^+ CD38^+ and CD34^+ CD38^− subpopulations from CML patients, CD34^+ cells were isolated as above and were treated with V or 2.5 μM CFZ for 96 h and then stained with PE-conjugated anti-CD34, FITC-conjugated anti-CD38 antibodies for 30 min and then stained with Annexin V-APC/PI at room temperature for 15 minutes and then were gated into CD34^+38^+ and CD34^+38^− populations and apoptosis was assessed in a FACSAria flow cytometer.

[4] = test system: aldehyde dehydrogenase (ALDH) activity in CP-CML cells; experiment: Aldefluor assay of aldehyde dehydrogenase activity; type: cell-based, Human; conditions: imatinib-resistant CP-CML cells, n=6, 5 μM, 48 h
Method: CP-CML cells from imatinib-resistant patients (n=6) were treated with CFZ or salinomycin (5 μM; 48 h) and aldehyde dehydrogenase activity in these cells were assessed using an ALDEFLUOR kit (Stemcell technologies). ***p<0.0001.
CP-CML cells isolated from imatinib-resistant patients were treated with vehicle (V; 0.1% DMSO), CFZ or salinomycin (both 5 μM) for 48 h (FIG. 2C). Aldehyde dehydrogenase activity in CP-CML cells was assessed using an Aldefluor kit ([…] technologies) by flow cytometry (FACSCalibur).

[5] = test system: CD34+ cells from healthy donors
Method: as §1

Structure (SMILES): CC(C)/N=c1\cc2n(-c3ccc(Cl)cc3)c3ccccc3nc-2cc1Nc1ccc(Cl)cc1 [CFZ, Clofazimine]
- combination index (CI) ([1]; CFZ with dasatinib, Compusyn): < 1
- combination index (CI) ([1]; CFZ with imatinib, Compusyn program): < 1
- IC50 ([1]; FIG. 1B, read-out: IC50 (48 h), reduction of viability): 5.85 µM
- IC50 ([1]; drug alone, FIG. 4A, read-out: IC50, K562 cell viability assay (48 h)): 4.13 µM
- apoptosis by Annexin V staining [2]: concentration-dependently induces apoptosis
- apoptosis in committed CD34+38+ progenitor cells ([3]; 2.5 μM CFZ, 96 h, n=3): induced apoptosis
- apoptosis in primitive CD34+38− progenitor cells ([3]; 2.5 μM CFZ, 96 h, n=3): induced apoptosis
- apoptosis in CD34+ LSC population ([3]; imatinib-resistant CP-CML patients, n=3, 5 μM, 48 h): induced apoptosis
- CD34+ population ([3]; imatinib-resistant patients, 5 μM, 48 h): reduces
- aldehyde dehydrogenase (ALDH) activity [4]: remarkably decreased
- apoptosis in CD34+ cells from healthy donor by Annexin V [5]: no apoptosis
- viability of CD34+ hematopoietic progenitor cells from healthy controls [5]: No loss of survival
